Source: ChEMBL document CHEMBL3739423, “Synthesis, biological evaluation and mechanism study of a class of benzylideneindanone derivatives as novel anticancer agents” (Medchemcomm, 2015)
The source made the active and inactive calls. No cut-off for these calls is given here.

test system: HeLa; assay: Induction of apoptosis in human HeLa cells assessed as early apoptotic cells at 0.05 uM after 48 hrs by annexin-v-PI staining based flow cytometry (reference value: 1.44%); format: functional; details: not given

SMILES	Activity [%]
COc1ccc(/C=C2\Cc3c(cc(OC)c(OC)c3OC)C2=O)cc1O	6.98

test system: HeLa; assay: Cell cycle arrest in human HeLa cells assessed as accumulation at G2/M phase at 0.1 microM after 48 hrs by flow cytometry; format: functional; details: not given

SMILES	Activity [%]
COc1ccc(/C=C2\Cc3c(cc(OC)c(OC)c3OC)C2=O)cc1O	35.2

test system: HeLa; assay: Induction of apoptosis in human HeLa cells assessed as early apoptotic cells at 0.5 uM after 48 hrs by annexin-v-PI staining based flow cytometry (reference value: 1.44%); format: functional; details: not given

SMILES	Activity [%]
COc1ccc(/C=C2\Cc3c(cc(OC)c(OC)c3OC)C2=O)cc1O	42.4

test system: A549; assay: Antiproliferative activity against human A549 cells after 48 hrs by MTT assay; format: functional; details: A549, 48 h

SMILES	GI50 [nM]
COc1cc2c(cc1O)C(=O)/C(=C/c1ccc(OC)c(OC)c1OC)C2	3420
COc1ccc(/C=C\c2cc(OC)c(OC)c(OC)c2)cc1O [COMBRETASTATIN A4]	18
COc1ccc(/C=C2\Cc3cc(OC)c(OC)c(OC)c3C2=O)cc1N	> 10000
COc1ccc(/C=C2\Cc3cc(OC)c(OC)c(OC)c3C2=O)cc1	> 10000
COc1cc2c(c(OC)c1OC)C/C(=C\c1cc(OC)c(OC)c(OC)c1OC)C2=O	> 10000

Continued, values first:

GI50 [nM]	SMILES
> 10000	COc1cc2c(cc1O)C(=O)/C(=C/c1cc(OC)c(OC)c(OC)c1)C2
> 10000	COc1cc2c(cc1OC)C(=O)/C(=C/c1cc(OC)c(OC)c(OC)c1)C2
298	COc1ccc(/C=C2\Cc3c(cc(OC)c(OC)c3OC)C2=O)cc1F
273	COc1ccc(/C=C2\Cc3c(cc(OC)c(OC)c3OC)C2=O)cc1
249	COc1ccc(/C=C2\Cc3c(cc(OC)c(OC)c3OC)C2=O)cc1O

test system: not listed separately; assay: Antiproliferative activity against human PC3 cells after 48 hrs by MTT assay; format: functional; details: PC-3, 48 h

SMILES	GI50 [nM]
COc1cc2c(cc1O)C(=O)/C(=C/c1ccc(OC)c(OC)c1OC)C2	3140
COc1ccc(/C=C\c2cc(OC)c(OC)c(OC)c2)cc1O [COMBRETASTATIN A4]	14
COc1cc2c(cc1O)C(=O)/C(=C/c1cc(OC)c(OC)c(OC)c1)C2	> 10000
COc1cc2c(cc1OC)C(=O)/C(=C/c1cc(OC)c(OC)c(OC)c1)C2	> 10000
COc1ccc(/C=C2\Cc3cc(OC)c(OC)c(OC)c3C2=O)cc1N	> 10000
COc1ccc(/C=C2\Cc3cc(OC)c(OC)c(OC)c3C2=O)cc1	> 10000
COc1ccc(/C=C2\Cc3c(cc(OC)c(OC)c3OC)C2=O)cc1F	277
COc1ccc(/C=C2\Cc3c(cc(OC)c(OC)c3OC)C2=O)cc1	750
COc1cc2c(c(OC)c1OC)C/C(=C\c1cc(OC)c(OC)c(OC)c1OC)C2=O	> 10000
COc1ccc(/C=C2\Cc3c(cc(OC)c(OC)c3OC)C2=O)cc1O	213

test system: HeLa; assay: Induction of apoptosis in human HeLa cells assessed as viable cells at 0.5 uM after 48 hrs by annexin-v-PI staining based flow cytometry (reference value: 98.4%); format: functional; details: read-out: Activity

SMILES	viability at 0.5 µM [%]
COc1ccc(/C=C2\Cc3c(cc(OC)c(OC)c3OC)C2=O)cc1O	40.6

test system: HeLa; assay: Induction of apoptosis in human HeLa cells assessed as early apoptotic cells at 0.1 uM after 48 hrs by annexin-v-PI staining based flow cytometry (reference value: 1.44%); format: functional; details: not given

SMILES	Activity [%]
COc1ccc(/C=C2\Cc3c(cc(OC)c(OC)c3OC)C2=O)cc1O	19

test system: HeLa; assay: Induction of apoptosis in human HeLa cells assessed as late apoptotic cells at 0.5 uM after 48 hrs by annexin-v-PI staining based flow cytometry (reference value: 0.08%); format: functional; details: not given

SMILES	Activity [%]
COc1ccc(/C=C2\Cc3c(cc(OC)c(OC)c3OC)C2=O)cc1O	12.6

test system: HeLa; assay: Induction of apoptosis in human HeLa cells assessed as late necrotic cells at 0.5 uM after 48 hrs by annexin-v-PI staining based flow cytometry (reference value: 0.09%); format: functional; details: not given

SMILES	Activity [%]
COc1ccc(/C=C2\Cc3c(cc(OC)c(OC)c3OC)C2=O)cc1O	4.4

test system: MDA-MB-231; assay: Antiproliferative activity against human MDA-MB-231 cells after 48 hrs by MTT assay; format: functional; details: MDA-MB-231, 48 h

SMILES	GI50 [nM]
COc1cc2c(cc1O)C(=O)/C(=C/c1ccc(OC)c(OC)c1OC)C2	2410
COc1ccc(/C=C\c2cc(OC)c(OC)c(OC)c2)cc1O [COMBRETASTATIN A4]	21
COc1ccc(/C=C2\Cc3cc(OC)c(OC)c(OC)c3C2=O)cc1N	> 10000
COc1ccc(/C=C2\Cc3cc(OC)c(OC)c(OC)c3C2=O)cc1	> 10000
COc1cc2c(c(OC)c1OC)C/C(=C\c1cc(OC)c(OC)c(OC)c1OC)C2=O	> 10000

Second part, the compound after the results:

GI50 [nM]	SMILES
> 10000	COc1cc2c(cc1O)C(=O)/C(=C/c1cc(OC)c(OC)c(OC)c1)C2
> 10000	COc1cc2c(cc1OC)C(=O)/C(=C/c1cc(OC)c(OC)c(OC)c1)C2
521	COc1ccc(/C=C2\Cc3c(cc(OC)c(OC)c3OC)C2=O)cc1F
429	COc1ccc(/C=C2\Cc3c(cc(OC)c(OC)c3OC)C2=O)cc1
570	COc1ccc(/C=C2\Cc3c(cc(OC)c(OC)c3OC)C2=O)cc1O

test system: HeLa; assay: Induction of apoptosis in human HeLa cells assessed as late necrotic cells at 0.05 uM after 48 hrs by annexin-v-PI staining based flow cytometry (reference value: 0.09%); format: functional; details: not given

SMILES	Activity [%]
COc1ccc(/C=C2\Cc3c(cc(OC)c(OC)c3OC)C2=O)cc1O	0.38

test system: HeLa; assay: Cell cycle arrest in human HeLa cells assessed as accumulation at G2/M phase at 0.5 microM after 48 hrs by flow cytometry; format: functional; details: not given

SMILES	Activity [%]
COc1ccc(/C=C2\Cc3c(cc(OC)c(OC)c3OC)C2=O)cc1O	46.1

test system: HeLa; assay: Induction of apoptosis in human HeLa cells assessed as late necrotic cells at 0.1 uM after 48 hrs by annexin-v-PI staining based flow cytometry (reference value: 0.09%); format: functional; details: not given

SMILES	Activity [%]
COc1ccc(/C=C2\Cc3c(cc(OC)c(OC)c3OC)C2=O)cc1O	1.03

test system: HeLa; assay: Induction of microtubule disruption in human HeLa cells assessed as irregular cytoplasm and chromosomes at 0.5 microM after 48 hrs by hoechst-33342-staining based confocal microscopy analysis; format: cell-based; details: not given

SMILES	Activity
COc1ccc(/C=C2\Cc3c(cc(OC)c(OC)c3OC)C2=O)cc1O	Active

biological target: Tubulin; assay: Inhibition of tubulin polymerization (unknown origin) by fluorescence analysis; format: protein-complex assay, Homo sapiens; details: not given

IC50 [µM]	SMILES
8.92	COc1ccc(/C=C2\Cc3c(cc(OC)c(OC)c3OC)C2=O)cc1F
9.62	COc1ccc(/C=C2\Cc3c(cc(OC)c(OC)c3OC)C2=O)cc1
7.56	COc1ccc(/C=C2\Cc3c(cc(OC)c(OC)c3OC)C2=O)cc1O

test system: HeLa; assay: Induction of apoptosis in human HeLa cells assessed as viable cells at 0.05 uM after 48 hrs by annexin-v-PI staining based flow cytometry (reference value: 98.4%); format: functional; details: read-out: Activity

SMILES	viability at 0.05 µM [%]
COc1ccc(/C=C2\Cc3c(cc(OC)c(OC)c3OC)C2=O)cc1O	91.8

test system: HeLa; assay: Cell cycle arrest in human HeLa cells assessed as accumulation at G2/M phase after 48 hrs by flow cytometry; format: functional, cell-based; details: not given

SMILES	Activity
COc1ccc(/C=C2\Cc3c(cc(OC)c(OC)c3OC)C2=O)cc1O	Dose-dependent effect

test system: not listed separately; assay: Antiproliferative activity against human Bel7402 cells after 48 hrs by MTT assay; format: functional; details: Bel-7402, 48 h

SMILES	GI50 [nM]
COc1cc2c(cc1O)C(=O)/C(=C/c1ccc(OC)c(OC)c1OC)C2	9650
COc1ccc(/C=C\c2cc(OC)c(OC)c(OC)c2)cc1O [COMBRETASTATIN A4]	12
COc1cc2c(cc1O)C(=O)/C(=C/c1cc(OC)c(OC)c(OC)c1)C2	> 10000
COc1cc2c(cc1OC)C(=O)/C(=C/c1cc(OC)c(OC)c(OC)c1)C2	> 10000
COc1ccc(/C=C2\Cc3cc(OC)c(OC)c(OC)c3C2=O)cc1N	> 10000
COc1ccc(/C=C2\Cc3cc(OC)c(OC)c(OC)c3C2=O)cc1	> 10000
COc1ccc(/C=C2\Cc3c(cc(OC)c(OC)c3OC)C2=O)cc1F	491
COc1ccc(/C=C2\Cc3c(cc(OC)c(OC)c3OC)C2=O)cc1	560
COc1cc2c(c(OC)c1OC)C/C(=C\c1cc(OC)c(OC)c(OC)c1OC)C2=O	> 10000
COc1ccc(/C=C2\Cc3c(cc(OC)c(OC)c3OC)C2=O)cc1O	307

test system: HeLa; assay: Induction of microtubule disruption in human HeLa cells assessed as destabilized microtubule network at 0.05,0.1, 0.5 microM after 48 hrs by hoechst-33342-staining based confocal microscopy analysis; format: cell-based; details: not given

SMILES	Activity
COc1ccc(/C=C2\Cc3c(cc(OC)c(OC)c3OC)C2=O)cc1O	Active

test system: HeLa; assay: Induction of apoptosis in human HeLa cells assessed as late apoptotic cells at 0.1 uM after 48 hrs by annexin-v-PI staining based flow cytometry (reference value: 0.08%); format: functional; details: not given

SMILES	Activity [%]
COc1ccc(/C=C2\Cc3c(cc(OC)c(OC)c3OC)C2=O)cc1O	2.57

test system: HeLa; assay: Induction of apoptosis in human HeLa cells after 48 hrs by annexin-v-PI staining based flow cytometry; format: functional, cell-based; details: not given

SMILES	Activity
COc1ccc(/C=C2\Cc3c(cc(OC)c(OC)c3OC)C2=O)cc1O	Dose-dependent effect

test system: HeLa; assay: Induction of apoptosis in human HeLa cells assessed as late apoptotic cells at 0.05 uM after 48 hrs by annexin-v-PI staining based flow cytometry (reference value: 0.08%); format: functional; details: not given

SMILES	Activity [%]
COc1ccc(/C=C2\Cc3c(cc(OC)c(OC)c3OC)C2=O)cc1O	0.82

test system: HeLa; assay: Antiproliferative activity against human HeLa cells after 48 hrs by MTT assay; format: functional; details: not given

SMILES	GI50 [nM]
COc1cc2c(cc1O)C(=O)/C(=C/c1ccc(OC)c(OC)c1OC)C2	1590
COc1ccc(/C=C\c2cc(OC)c(OC)c(OC)c2)cc1O [COMBRETASTATIN A4]	2.8
COc1ccc(/C=C2\Cc3cc(OC)c(OC)c(OC)c3C2=O)cc1N	> 10000
COc1ccc(/C=C2\Cc3cc(OC)c(OC)c(OC)c3C2=O)cc1	> 10000
COc1cc2c(c(OC)c1OC)C/C(=C\c1cc(OC)c(OC)c(OC)c1OC)C2=O	> 10000

Now from value to compound:

GI50 [nM]	SMILES
> 10000	COc1cc2c(cc1O)C(=O)/C(=C/c1cc(OC)c(OC)c(OC)c1)C2
> 10000	COc1cc2c(cc1OC)C(=O)/C(=C/c1cc(OC)c(OC)c(OC)c1)C2
258	COc1ccc(/C=C2\Cc3c(cc(OC)c(OC)c3OC)C2=O)cc1F
485	COc1ccc(/C=C2\Cc3c(cc(OC)c(OC)c3OC)C2=O)cc1
172	COc1ccc(/C=C2\Cc3c(cc(OC)c(OC)c3OC)C2=O)cc1O

test system: HeLa; assay: Induction of microtubule disruption in human HeLa cells assessed as microtubule heavily shrunk around centre of cells at 0.5 microM after 48 hrs by hoechst-33342-staining based confocal microscopy analysis; format: cell-based; details: not given

SMILES	Activity
COc1ccc(/C=C2\Cc3c(cc(OC)c(OC)c3OC)C2=O)cc1O	Active

test system: HeLa; assay: Induction of apoptosis in human HeLa cells assessed as viable cells at 0.1 uM after 48 hrs by annexin-v-PI staining based flow cytometry (reference value: 98.4%); format: functional; details: read-out: Activity

SMILES	viability at 0.1 µM [%]
COc1ccc(/C=C2\Cc3c(cc(OC)c(OC)c3OC)C2=O)cc1O	77.4

test system: HeLa; assay: Cell cycle arrest in human HeLa cells assessed as accumulation at G2/M phase at 0.05 microM after 48 hrs by flow cytometry; format: functional; details: not given

SMILES	Activity [%]
COc1ccc(/C=C2\Cc3c(cc(OC)c(OC)c3OC)C2=O)cc1O	23.2
